Common to all, as to assay type: in vivo
Data set [1] deals with Yellow Fever Mosquito (Aedes aegypti, AEDSAE). Kind of data set: Bioassay on Yellow Fever Mosquito (YFM) larvae, 96-well plate. To be noted: about 1 day-old larvae, 4000 ppm DMSO master plate diluted, graded after 3 days. A digest of the protocol: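 Compounds from 4000 ppm DMSO master stocks, diluted in 90:10 water:acetone, dispensed into wells and infested with about 1-day-old Aedes aegypti larvae in liver-powder water. Six replicate plates, covered and held at room temperature for 3 days, then each well scored for mortality.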

The subject of data set [2] is Beet Armyworm (Spodoptera exigua, LAPHEG). Briefly: Bioassay on Beet Armyworm (BAW), 128-well diet tray assay. The conditions noted are these: 168 h, 50 μg/cm^2 on artificial diet, second instar larvae, five to seven days, 25° C., read-out: BAW % Control (or Mortality) rating. A digest of the protocol:
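Second instar larvae, one to five per well, placed on artificial diet treated with 50 μg/cm^2 compound (in 90:10 acetone-water) and dried; eight wells per compound. Held at 25° C, 14:10 light-dark, five to seven days. Percent mortality recorded per well and averaged.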

Data set [3] has as its system Cabbage Looper (Trichoplusia ni, TRIPNI). Briefly: Bioassay on Cabbage Looper (CL), 128-well diet tray assay. To be noted: 168 h, 50 μg/cm^2 on artificial diet, second instar larvae, five to seven days, 25° C., read-out: CL % Control (or Mortality) rating. An outline of the steps: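 Diet-tray test with one to five second-instar larvae per well on artificial diet treated with 50 μg/cm^2 compound (in 90:10 acetone-water), dried, eight wells per molecule. Held 25 °C, 14:10 light-dark for five to seven days; percent mortality averaged over the eight wells.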

Data set [4] concerns Green Peach Aphid (Myzus persicae, MYZUPE). Briefly: Bioassay on Green Peach Aphid (GPA), foliar spray on cabbage seedlings. The conditions noted are these: 72 h, 200 ppm foliar spray on cabbage seedlings, three days, Abbott corrected % control, read-out: GPA % Control (or Mortality) rating. As for the experimental part:
Example B: Bioassays on Green Peach Aphid (Myzus persicae, MYZUPE) (“GPA”)
Certain molecules disclosed in this document were tested against GPA using procedures described in the following example. In the reporting of the results, the “GPA Rating Table” was used (See Table Section).
Cabbage seedlings grown in 3-inch pots, with 2-3 small (3-5 cm) true leaves, were used as test substrate. The seedlings were infested with 20-50 GPA (wingless adult and nymph stages) one day prior to chemical application. Four pots with individual seedlings were used for each treatment. Test molecules (2 mg) were dissolved in 2 mL of acetone/methanol (1:1) solvent, forming stock solutions of 1000 ppm test molecule. The stock solutions were diluted 5× with 0.025% Tween 20 in water to obtain the solution at 200 ppm test molecule. A hand-held aspirator-type sprayer was used for spraying a solution to both sides of […] leaves until runoff. Reference plants (solvent check) were sprayed with the diluent only containing 20% by volume of acetone/methanol (1:1) solvent. Treated plants were held in a holding room for three days at approximately 25° C. and ambient relative humidity (RH) prior to grading. Evaluation was conducted by counting the number of live aphids per plant under a microscope. Percent Control was measured by using Abbott's correction formula (W. S. Abbott, “A Method of Computing the Effectiveness of an Insecticide” J. Econ. Entomol. 18 (1925), pp. 265-267) as follows. Corrected % Control=100*(X−Y)/X • where • X=No. of live aphids on solvent check plants and • Y=No. of live aphids on treated plants
The results are indicated in the table entitled “Table ABC: Biological Results” (See Table Section).

The values that follow come from patent US10212936B2, “Molecules having pesticidal utility, and intermediates, compositions, and processes, related thereto” (priority 2014, dated 2019).

In general, mortality refers to the share of the test organisms that died. As for `Cc1ccc(C)c(-n2nccc2NC(=O)Nc2ccc(-c3ncn(-c4ccc(OC(F)(F)F)cc4)n3)cc2)c1` [F7, 1-(1-(2,5-Dimethylphenyl)-1H-pyrazol-5-yl)-3-(4-(1-(4-(trifluoromethoxy)phenyl)-1H-1,2,4-triazol-3-yl)phenyl)urea], the “YFM % Control (or Mortality) rating” value in data set [1] is recorded as “A (80-100)”. In addition, the mortality at 50 µg/cm2 in data set [2] and in data set [3] was 50 to 100% each time. For the same compound, the mortality at 200 ppm in data set [4] was 0 to 80%.

For the compound `O=C(Nc1ccc(-c2ncn(-c3ccc(OC(F)(F)C(F)(F)F)cc3)n2)cc1)Nc1ccnn1-c1c(Cl)cccc1Cl` [F14, 1-(1-(2,6-Dichlorophenyl)-1H-pyrazol-5-yl)-3-(4-(1-(4-(perfluoroethoxy)phenyl)-1H-1,2,4-triazol-3-yl)phenyl)urea], in data set [1], the “YFM % Control (or Mortality) rating” value is listed as “A (80-100)”. Moreover, the mortality at 50 µg/cm2 in data set [2] and in data set [3] was 50 to 100% in each case. Moreover, in data set [4], the mortality at 200 ppm fell in the range of 0 to 80%.
